# “Also recorded” adds a separate entry of the source.
# What was measured:
# TglHI = type: biochemical, Pseudomonas syringae pv. maculicola ES4326
# Experimental: TglHI protein and H2O2 (or EDTA) were initially incubated together for 10 min, and then protein was purified by size exclusion chromatography to remove excess H2O2 (or EDTA). The reaction between the H2O2 (EDTA)-treated TglHI and minimum substrate analog of TglA-Cys, β-NAD^+, and FDH was then monitored for the levels of NADH.
# (A) In vitro activity assay of the modification of the minimum substrate analog of TglA-Cys by TglHI with treatment of H2O2 in the presence of formate dehydrogenase (FDH) and β-NAD+. NADH formation was […]
# (B) In vitro activity assay of the modification of the minimum substrate analog of TglA-Cys by TglHI with […]
# treatment of EDTA (5 mM, 10 mM, 20 mM).
# [1] = target: TglHI holoenzyme (Pseudomonas syringae pv. maculicola ES4326); test: ITC
# [2] = Solubility on (co-)expression in E. coli, SDS-PAGE; type: physicochemical; settings: expression in E. coli BL21, SDS-PAGE
# Experimental: The tglH (NCBI accession No. WP_007252215.1) and tglI (NCBI accession No. WP_007252216.1) genes from Pseudomonas syringae pv. maculicola (P. syringae) ES4326 were codon-optimized for expression in E. coli (the optimized sequences are provided in KRT) and subcloned into the pRSFDuet-1 vector. E. coli BL21 (DE3) cells containing the tglHI-pRSFDuet-1 plasmid were grown in Luria broth (LB) medium at 37 °C and 220 rpm to an optical density at 600 nm (OD600) of 0.6. Fe-containing TglHI proteins were obtained by the addition of 1 mM (NH4)2Fe(SO4)2 in LB medium. Subsequently, cultures were induced at 16 °C with the addition of isopropyl β-D-thiogalactoside (IPTG) at a final concentration of 0.2 mM. […] After cell lysis, lysates were centrifuged at 18000 rpm for 30 min to obtain the supernatant containing the target protein. […] The purity of the purified proteins was assessed using sodium dodecyl sulfate‒polyacrylamide gel electrophoresis (SDS‒PAGE) and they were flash-frozen with liquid nitrogen for subsequent crystallization and biochemical analysis. […]
# (B) The tglH and tglI genes were inserted into the pRSF-DuET-1 vector for co-expression, and the complexes were purified through nickel affinity columns. […] The proteins were then eluted and analyzed by SDS-PAGE. […]
molecule,measurement,setting,value
OO [H2O2],TglHI activity after pretreatment with H2O2,"TglHI; 10 min incubation, then size exclusion chromatography, NADH at 340 nm",background; also recorded: loss of TglHI activity
TglA-Cys analog containing the C-terminal 19 amino acids (peptide),Kd,[1],8.5 µM
O=C(O)CN(CCN(CC(=O)O)CC(=O)O)CC(=O)O [EDTA],TglHI activity after treatment with EDTA,"TglHI; EDTA 5 mM, 10 mM, 20 mM, 10 min incubation, then size exclusion chromatography",merely attenuated the enzymatic activity of TglHI instead of abolishing the activity
same,effect of higher EDTA concentrations on TglHI,"TglHI; higher concentrations than 5, 10, 20 mM",precipitation
TglH: Fe-dependent DUF692 catalytic subunit (protein) MPDFVKPAPIGVGIQYNPEILDWFPFEDIQVDILEILLDNIMAPMDGPQIIKPSAQAMIERLGQKFTLLAHSNYGCDFGFSALEETAAVQRHVPLAKMLNSPWVANHCFYGDQSWLDIWSSPIQFSAAEVARCADRAQSLQTLYGMPLAHENAAYYLECPGAEMREAEFLARLVQRSGTFLHLDLHNIYTNHLNLKGFDLKDYMDTLPLDKVISVHLAGGSWHGGLYHDWHDACVPEPVWDLYEDLLSRAQPSAVILEYQGQAHHAQTRIMDASDESMIVRDVQRAQAIWSRYNRHPQERQYGS,solubility of protein / complex,[2],expressed partially in soluble form
TglI: recruitment subunit with RRE domain (protein) MEAEQVWKLWRRVLRDERLQAQLFSATDATHWLSGFSESESKILSVYAQQFDRVKWFVENYQFRLVNSFLNALETGAPLSLRALLHINVDLNAQSKAFLRDRQWRDYGPQVYTYCEDVLGFLAEADELQGYPEILDLMRLERESVRLYRGLVDPESLPADNRYQRTSMARLYETRFALSGWLRQKDQLGLTRLPESTEHVLIYLPTLQARHKFTLINAQAARLYNCLEQPQSAAGLFMLINSDSASVPGSADLALLDRLEQLNAIRKPL,solubility of protein / complex,[2],insoluble when expressed alone and only soluble when co-expressed with TglH
